The source of these data is article PMC4513902, “Evaluation of a new radiolabeled bombesin derivative with ^99mTc as potential targeted tumor imaging agent” (Journal of Radioanalytical and Nuclear Chemistry, 2013).

Series [1] deals with human GRP receptor cell line PC-3. In words: Internalization assay in PC-3 cells. It is filed as cell-based. The conditions noted are these: 1 million cells per well, about 150 kBq (2.5 pmol total peptide) per well, acid resistant fraction, gamma counter. The procedure: The human androgen-independent prostate carcinoma cell line PC-3 was obtained from National Cell Bank of Iran (NCBI) affiliated to Pasteur Institute of Iran. The cells were grown in DMEM supplemented with 10 % (v/v) fetal bovine serum (FBS), 1 % L-glutamine (2 mM),1 % penicillin(100 IU/ml)/streptomycin(100 μg/ml) and 1 % amphotericin B(0.25 μg/ml). The cells were incubated at 37 °C in a humidified atmosphere containing 5 % CO2 and were subcultured weekly detaching with trypsin/EDTA solution (0.25 %).
Medium was removed from the 6-well plates contain PC-3 cells with density of 1 million cells per well and cells were washed once with 2 ml of internalization medium (DMEM with 1 % FBS). Furthermore, 1.5 ml internalization medium was added to each well, and the plates were incubated at 37 °C for about 1 h. Afterwards, about 150 kBq (2.5 pmol total peptide mass per well) was added to the medium, and the cells were incubated at 37 °C for various time periods. To determine nonspecific internalization, we incubated cells with the radioligand in the presence of 150 μl, 1 μmol/l Bombesin. The cellular uptake was stopped at appropriate time periods (30 min, 1 h, 2 h and 4 h) by removing medium from the cells and washing twice with 1 ml of ice-cold phosphate-buffered saline (PBS). […] The culture medium, the receptor-bound and internalized fractions were measured radiometrically in a gamma counter.

Series [2] in a line: Radiochemical stability post labeling at room temperature. It is filed as physicochemical.
For another series, the system named is PC-3 tumor cell. In words: Efflux of radiopeptide from PC-3 tumor cells. The conditions noted are these: after 4 h. It is filed as cell-based, human.
The next series can be described thus: Human serum stability. The series is classed as in vitro ADME. The method, then:
To 1 mL of freshly prepared human serum, we added 100 μl (14.8–29.6 MBq) radiolabeled BB derivative and mixture was incubated at 37 °C. 100 μl aliquots was removed and treated with 200 μl of ethanol at different times up to 24 h. Sample was centrifuged at 3,000 rpm for 15 min to precipitate serum proteins. The supernatant was filtered through a 0.20 μm pore filter and analyzed with RP-HPLC Gradient I to determine radiochemical stability.

Series [3] in a line: Biodistribution in nude mice bearing PC-3 tumors. The series is classed as in vivo, mouse. The method, then:
Animal experiments were performed in compliance with the regulations of our institution and with generally accepted guidelines governing such a work. A suspension of human PC-3 cells (1 × 10^7) in PBS buffer was subcutaneously injected in the right flank of each nude mouse. Seven to 10 days after inoculation, the tumors were inducted and then an activity of 20 MBq (0.35 nmol) of ^99mTc-Bombesin was injected via the femoral vein. In order to determine the non-specific uptake of the radiopeptides, in receptor-positive organs, a group of 3 animals were injected with 100 μg cold peptide in 50 μl saline as a co-injection with the radiopeptides (blocked animals). After 1, 4 and 24 h, the mice in groups of 3 animals were scarified, organs of interest were collected, weighed and radioactivity was measured in a gamma counter. The percentage of the injected dose per gram (% ID/g) was calculated for each tissue.

Series [4] has as its system human GRP receptor cell line PC-3. The conditions noted are these: after 4 h in PC-3; previous compound; cited from earlier work. The text has this:
Compare with our pervious compound [^99mTc-tricine-HYNIC^0-D-Tyr^6-D-Trp^8]

Setting [5] is: 1 h after injection, nude mice with PC-3 tumor, 20 MBq (0.35 nmol) via femoral vein, n = 3.
[6] abbreviates: 4 h, unblocked vs. blocked mice, P < 0.05.

Like-named read-outs stand apart in the source and are kept apart here.

As for “[^99mTc/tricine/HYNIC^0, D-Tyr^5-D-Tyr^6-D-Phe^13] Bombesin (5–14) NH2 [new bombesin derivative labeled with ^99mTc via HYNIC and tricine as a coligand]”, the “internalization into PC-3 cells” value in series [1] (0.5 h incubation at 37 °C, mean ± SD) was 2.3 ± 0.9%. For the same substance, the “internalization into PC-3 cells” value in series [1] (1 h incubation at 37 °C, three independent experiments with triplicates) is listed as 5.3 ± 1.1%. Also, the “time stable post labeling (radiochemical stability)” value in series [2] is recorded as no less than 24 h. The “efflux rate of radiopeptide from PC-3 tumor cell” value in the series with PC-3 tumor cell is recorded as “acceptable intercellular trapping”. Besides, in the series “Human serum stability” (after 24 h in freshly prepared human serum, 37 °C, 100 μl (14.8–29.6 MBq) in 1 mL serum, ethanol precipitation, RP-HPLC Gradient I), the “radiochemical purity remaining in human serum” value is greater than 90%. Further, the “time of good stability in human serum” value in the series “Human serum stability” (human serum at 37 °C, no significant impurities detected by HPLC) is “at least 24 h”. Further, in series [3] (setting [5]), the “uptake in PC-3 tumor” value stood at 2.11 ± 0.18 % ID/g and the uptake in pancreas came to 1.78 ± 0.09 % ID/g. Further, in series [3] (setting [6]), the “Reduction of uptake in pancreas by blocking with cold peptide” value was 76% and the “Reduction of uptake in tumor by blocking with cold peptide” value turned out to be 82%.
“[^99mTc-tricine-HYNIC^0-D-Tyr^6-D-Trp^8] BB (6–14)”: the “internalization into PC-3 cells” value in series [4] is reported as 10.7 ± 1.2%.
